# Source: paper PMC11285368, “Chasing Red Herrings: Palladium Metal Salt Impurities Feigning KRAS Activity in Biochemical Assays” (Journal of Medicinal Chemistry, 2024)
# Key:
# Assay type in all cases: biochemical
# [1] = target: WRN (ext.) (Homo sapiens, UniProt Q14191); assay: WRN ADP-Glo, Target #2
# Protocol: (§1) Metal salt solutions for the metal ion interference set (MIIS) were prepared as 10 mM stock solutions in DMSO (see Table 3). All metal salts used have been purchased at highest industrial grade.
# [2] = target: KRAS (Homo sapiens, UniProt P01116); assay: KRAS TR-FRET (MIIS list); settings: read-out: Target #1 IC50
# Protocol: as §1
# [3] = system: KRAS GDP; assay: KRAS AlphaScreen, Target #1
# Protocol: as §1
# [4] = system: off-target; assay: MDM2 AlphaScreen, Target #2
# Protocol: as §1
# [5] = system: off target; assay: FKBP51 AlphaScreen, Target #3
# Protocol: as §1
# [6] = system: off target; assay: MDM2 AlphaScreen, Target #3
# Protocol: as §1
# [7] = target: T1, SOS1 (Homo sapiens, UniProt Q07889); assay: SOS1 TR-FRET; settings: read-out: Target #1 IC50
# T1 sequence (Q07889 1-1333): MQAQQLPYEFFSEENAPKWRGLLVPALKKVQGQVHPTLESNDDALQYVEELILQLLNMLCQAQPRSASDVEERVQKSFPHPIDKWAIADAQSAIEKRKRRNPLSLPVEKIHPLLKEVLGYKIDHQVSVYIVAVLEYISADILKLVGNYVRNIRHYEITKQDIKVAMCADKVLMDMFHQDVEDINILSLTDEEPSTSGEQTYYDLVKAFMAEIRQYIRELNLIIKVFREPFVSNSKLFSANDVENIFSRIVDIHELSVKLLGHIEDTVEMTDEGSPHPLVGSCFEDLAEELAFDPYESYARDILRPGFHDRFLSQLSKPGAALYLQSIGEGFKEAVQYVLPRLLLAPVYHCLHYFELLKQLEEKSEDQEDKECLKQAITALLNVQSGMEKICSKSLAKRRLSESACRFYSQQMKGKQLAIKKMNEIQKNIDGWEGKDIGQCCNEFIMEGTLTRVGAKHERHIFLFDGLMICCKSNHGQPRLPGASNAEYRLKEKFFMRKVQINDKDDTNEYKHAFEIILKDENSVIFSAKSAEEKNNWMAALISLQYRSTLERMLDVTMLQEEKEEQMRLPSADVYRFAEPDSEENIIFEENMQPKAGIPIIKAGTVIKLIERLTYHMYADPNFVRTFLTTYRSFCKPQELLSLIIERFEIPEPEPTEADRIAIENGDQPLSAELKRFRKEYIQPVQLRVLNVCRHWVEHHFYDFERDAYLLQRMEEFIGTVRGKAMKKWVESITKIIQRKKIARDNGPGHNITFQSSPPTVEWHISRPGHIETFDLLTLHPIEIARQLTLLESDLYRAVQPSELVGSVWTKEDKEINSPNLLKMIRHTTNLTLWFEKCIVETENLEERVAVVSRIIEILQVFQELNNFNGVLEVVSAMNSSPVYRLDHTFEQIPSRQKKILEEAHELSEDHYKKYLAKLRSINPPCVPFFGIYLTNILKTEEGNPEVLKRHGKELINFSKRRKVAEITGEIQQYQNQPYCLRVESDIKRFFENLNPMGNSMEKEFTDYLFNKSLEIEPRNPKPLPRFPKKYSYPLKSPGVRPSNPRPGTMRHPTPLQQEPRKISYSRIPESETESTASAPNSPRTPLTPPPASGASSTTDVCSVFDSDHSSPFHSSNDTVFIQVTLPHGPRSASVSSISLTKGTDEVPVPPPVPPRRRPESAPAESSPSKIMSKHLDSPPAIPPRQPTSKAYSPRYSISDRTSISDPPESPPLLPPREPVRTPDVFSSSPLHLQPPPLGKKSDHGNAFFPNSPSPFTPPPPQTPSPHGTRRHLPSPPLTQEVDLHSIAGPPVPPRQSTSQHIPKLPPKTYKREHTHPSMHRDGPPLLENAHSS
# Protocol: as §1
# [8] = system: off-target (int.); assay: WRN ADP-Glo, Target #3
# Protocol: as §1
# [9] = target: T1, SOS1; assay: SOS1 AlphaScreen, Target #1
# Protocol: as §1
# [10] = target: BCL6 (Homo sapiens, UniProt P41182); assay: BCL6 Fluorescence Polarization; settings: read-out: Target #1 IC50
# Protocol: as §1
# [11] = target: T2, FKBP51 (Homo sapiens, UniProt Q13451); assay: FKBP51 AlphaScreen, Target #1
# T2 sequence (Q13451 1-457): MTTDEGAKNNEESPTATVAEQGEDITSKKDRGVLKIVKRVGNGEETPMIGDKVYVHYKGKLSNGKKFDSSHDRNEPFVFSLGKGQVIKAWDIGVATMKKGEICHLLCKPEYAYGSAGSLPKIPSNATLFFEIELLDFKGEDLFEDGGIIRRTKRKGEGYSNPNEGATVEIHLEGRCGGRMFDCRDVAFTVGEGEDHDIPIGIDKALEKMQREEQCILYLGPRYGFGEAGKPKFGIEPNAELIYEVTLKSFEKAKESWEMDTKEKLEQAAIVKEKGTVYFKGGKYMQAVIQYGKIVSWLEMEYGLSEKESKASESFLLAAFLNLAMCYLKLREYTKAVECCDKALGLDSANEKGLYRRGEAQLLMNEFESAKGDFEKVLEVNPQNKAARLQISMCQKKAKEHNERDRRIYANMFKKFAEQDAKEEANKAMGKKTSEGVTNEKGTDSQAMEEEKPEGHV
# Protocol: as §1
# [12] = target: WRN (int.) (Homo sapiens, UniProt Q14191); assay: WRN ADP-Glo, Target #1
# Protocol: as §1
# [13] = target: KRAS GTP (Homo sapiens, UniProt P01116, G12D); assay: KRAS AlphaScreen, Target #2
# Protocol: as §1
# [14] = system: off-target; assay: SOS1 AlphaScreen, Target #2
# Protocol: as §1
# [15] = target: UPAR (Homo sapiens, UniProt Q03405); assay: UPA-UPAR AlphaScreen, Target #1
# Protocol: as §1
# [16] = system: off-target; assay: UPA-UPAR AlphaScreen, Target #2
# Protocol: as §1
# Sequence of WRN (int.) (Q14191 whole entry, species assumed): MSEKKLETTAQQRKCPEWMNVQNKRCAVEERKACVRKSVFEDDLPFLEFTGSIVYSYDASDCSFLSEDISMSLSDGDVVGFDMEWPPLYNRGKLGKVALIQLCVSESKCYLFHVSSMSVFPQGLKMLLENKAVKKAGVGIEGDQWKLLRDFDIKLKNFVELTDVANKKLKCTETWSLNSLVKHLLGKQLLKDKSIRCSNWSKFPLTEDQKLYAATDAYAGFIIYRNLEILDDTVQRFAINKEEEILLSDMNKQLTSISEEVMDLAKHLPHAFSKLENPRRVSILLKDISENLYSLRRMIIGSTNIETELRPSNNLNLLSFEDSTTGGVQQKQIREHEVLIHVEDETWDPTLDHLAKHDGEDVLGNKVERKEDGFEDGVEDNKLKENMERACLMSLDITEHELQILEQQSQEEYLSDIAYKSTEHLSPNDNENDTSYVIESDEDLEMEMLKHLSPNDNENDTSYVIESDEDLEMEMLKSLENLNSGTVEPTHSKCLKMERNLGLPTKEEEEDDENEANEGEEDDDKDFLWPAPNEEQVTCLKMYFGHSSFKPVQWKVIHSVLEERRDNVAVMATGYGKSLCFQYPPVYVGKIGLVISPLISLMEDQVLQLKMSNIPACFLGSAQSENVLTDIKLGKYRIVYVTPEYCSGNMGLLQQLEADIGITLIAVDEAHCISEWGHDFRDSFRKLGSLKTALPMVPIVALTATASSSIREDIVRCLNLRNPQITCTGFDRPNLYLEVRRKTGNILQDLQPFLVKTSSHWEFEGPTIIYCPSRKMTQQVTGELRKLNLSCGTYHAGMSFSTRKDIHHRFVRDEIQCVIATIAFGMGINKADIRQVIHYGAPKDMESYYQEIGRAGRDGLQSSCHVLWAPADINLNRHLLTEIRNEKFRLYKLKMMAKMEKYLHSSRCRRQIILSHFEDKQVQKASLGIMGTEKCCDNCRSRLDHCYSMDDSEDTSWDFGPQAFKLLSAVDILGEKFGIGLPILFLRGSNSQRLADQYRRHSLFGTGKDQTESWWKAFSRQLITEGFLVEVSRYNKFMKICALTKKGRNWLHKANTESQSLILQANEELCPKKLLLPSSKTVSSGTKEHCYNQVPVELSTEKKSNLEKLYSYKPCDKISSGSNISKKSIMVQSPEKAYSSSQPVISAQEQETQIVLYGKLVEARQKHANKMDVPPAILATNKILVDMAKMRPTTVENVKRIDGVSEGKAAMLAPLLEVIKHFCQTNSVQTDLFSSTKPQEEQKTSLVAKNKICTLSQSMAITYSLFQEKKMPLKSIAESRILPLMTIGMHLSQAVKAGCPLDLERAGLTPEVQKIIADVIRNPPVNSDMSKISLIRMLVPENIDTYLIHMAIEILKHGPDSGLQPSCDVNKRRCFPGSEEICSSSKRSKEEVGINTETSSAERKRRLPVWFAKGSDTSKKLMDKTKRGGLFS
# Sequence of WRN (ext.) (Q14191 whole entry, species assumed): as above
# Sequence of UPAR (Q03405 23-305 limits assumed, species assumed): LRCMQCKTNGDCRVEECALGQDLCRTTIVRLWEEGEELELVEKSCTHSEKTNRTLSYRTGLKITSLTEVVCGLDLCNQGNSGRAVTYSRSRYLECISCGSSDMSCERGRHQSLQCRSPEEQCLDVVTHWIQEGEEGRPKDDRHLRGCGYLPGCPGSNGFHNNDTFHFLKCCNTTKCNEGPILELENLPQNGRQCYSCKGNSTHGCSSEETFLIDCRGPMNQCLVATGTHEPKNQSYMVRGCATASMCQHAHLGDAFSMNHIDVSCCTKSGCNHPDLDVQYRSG
# Sequence of KRAS GTP (P01116 1-169 isoform P01116-2 G12D): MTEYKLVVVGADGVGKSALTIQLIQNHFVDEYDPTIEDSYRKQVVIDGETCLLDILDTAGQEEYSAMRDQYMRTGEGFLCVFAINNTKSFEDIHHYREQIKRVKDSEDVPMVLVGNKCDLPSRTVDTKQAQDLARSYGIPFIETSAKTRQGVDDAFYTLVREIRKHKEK
# Sequence of KRAS (P01116 1-188 isoform P01116-2): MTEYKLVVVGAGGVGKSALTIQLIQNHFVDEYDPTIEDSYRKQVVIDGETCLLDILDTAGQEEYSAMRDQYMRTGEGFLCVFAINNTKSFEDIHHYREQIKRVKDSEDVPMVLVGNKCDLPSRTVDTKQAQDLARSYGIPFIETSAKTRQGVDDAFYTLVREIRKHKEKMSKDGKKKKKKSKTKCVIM
Compound,IC50 [1] [µM],IC50 [3] [µM],IC50 [5] [µM],IC50 [6] [µM],IC50 [7] [µM],IC50 [8] [µM],IC50 [9] [µM],IC50 [10] [µM],IC50 [11] [µM],IC50 [12] [µM],IC50 [13] [µM],IC50 [14] [µM],IC50 [15] [µM],IC50 [16] [µM],IC50 [2] [µM],IC50 [4] [µM]
"CC(=O)[O-].[Ag+] [Ag (CH 3COO), Silver acetate]",> 10,> 10,> 10,> 10,< 1,> 10,< 1,> 10,> 10,> 10,> 10,> 10,–,–,< 1,> 10
"O=[N+]([O-])[O-].O=[N+]([O-])[O-].O=[N+]([O-])[O-].[Al+3] [Al(NO3)3, Aluminum nitrate]",> 10,> 10,> 10,> 10,> 10,1 to 10,> 10,> 10,< 1,> 10,> 10,> 10,> 10,> 10,–,> 10
"[Cl][Au]([Cl])[Cl] [AuCl3, Gold(III) chloride]",1 to 10,1 to 10,> 10,> 10,< 1,> 10,< 1,> 10,> 10,> 10,1 to 10,> 10,1 to 10,1 to 10,< 1,> 10
"[Cl-].[Cl-].[Co+2] [CoCl2, Cobalt(II) chloride]",> 10,> 10,> 10,> 10,> 10,> 10,> 10,> 10,> 10,> 10,> 10,> 10,1 to 10,> 10,–,> 10
"[Cl][Cu][Cl] [CuCl2, Copper(II) chloride]",1 to 10,> 10,> 10,> 10,> 10,> 10,1 to 10,> 10,> 10,> 10,> 10,> 10,< 1,> 10,–,> 10
"[Cl][Ni][Cl] [NiCl2, Nickel(II) chloride]",> 10,> 10,> 10,> 10,> 10,> 10,> 10,> 10,> 10,> 10,> 10,> 10,< 1,> 10,–,> 10
"[Cl][Pd][Cl] [PdCl2, Palladium(II) chloride]",1 to 10,< 1,> 10,> 10,1 to 10,< 1,< 1,> 10,> 10,< 1,< 1,> 10,< 1,< 1,–,> 10
"[Cl][Sn][Cl] [SnCl2, Tin(II) chloride]",> 10,> 10,> 10,> 10,1 to 10,> 10,> 10,> 10,1 to 10,> 10,1 to 10,> 10,> 10,> 10,–,> 10

# More lines, main results first:
IC50 [1] [µM],IC50 [3] [µM],IC50 [5] [µM],IC50 [6] [µM],IC50 [7] [µM],IC50 [8] [µM],IC50 [9] [µM],IC50 [10] [µM],IC50 [11] [µM],IC50 [12] [µM],IC50 [13] [µM],IC50 [14] [µM],IC50 [15] [µM],IC50 [16] [µM],Compound,IC50 [2] [µM],IC50 [4] [µM]
> 10,1 to 10,> 10,> 10,1 to 10,> 10,> 10,> 10,> 10,> 10,1 to 10,> 10,> 10,> 10,"[Cl][Fe][Cl] [FeCl2, Iron(II) chloride]",–,–
> 10,1 to 10,> 10,> 10,1 to 10,> 10,> 10,> 10,> 10,> 10,1 to 10,> 10,> 10,> 10,"[Cl][Fe]([Cl])[Cl] [FeCl3, Iron(III) chloride]",–,> 10
> 10,> 10,> 10,> 10,> 10,> 10,> 10,> 10,> 10,> 10,1 to 10,> 10,> 10,> 10,"[Cl-].[Cl-].[Mg+2] [MgCl2, Magnesium chloride]",–,> 10
> 10,> 10,> 10,> 10,> 10,> 10,> 10,> 10,> 10,> 10,> 10,> 10,> 10,> 10,"[Cl][Mn][Cl] [MnCl2, Manganese(II) chloride]",–,> 10
> 10,> 10,> 10,> 10,> 10,> 10,> 10,> 10,> 10,1 to 10,> 10,> 10,< 1,> 10,"[Cl-].[Cl-].[Zn+2] [ZnCl2, Zinc(II) chloride]",–,> 10
